Experimental data published in paper PMC9504587, “Cytotoxic Drimane-Type Sesquiterpenes from Co-Culture of the Marine-Derived Fungi Aspergillus carneus KMM 4638 and Beauveria felina (=Isaria felina) KMM 4639” (Marine Drugs, 2022).
Values after ≈ are worked out from the molar mass of the structure shown. Where two headings read alike, the source gives them in different places.

Key:
[1] = tested on: human prostate cancer PC-3; assay: MTT cytotoxicity assay, PC-3 cells; format: cell-based; settings: 24 h incubation, mean ± SEM
Method: (§1) PC-3, MCF-7, C6, and H9c2 cells were cultured in DMEM medium (Biolot, St. Petersburg, Russia) containing 10% fetal bovine serum (Biolot, St. Petersburg, Russia) and 1% penicillin/streptomycin (Biolot, St. Petersburg, Russia) at 37 °C in a humidified atmosphere with 5% (v/v) CO2. The Raji cells were cultured in RPMI-1640 medium (Biolot, St. Petersburg, Russia) containing 10% fetal bovine serum (Biolot, St. Petersburg, Russia) and 1% penicillin/streptomycin (Biolot, St. Petersburg, Russia) under the same conditions.
(§2) Initially, cells were incubated in culture flasks until subconfluent (~80%). For testing, the cells were seeded at concentrations of 5 × 10^3 cells/well (PC-3, MCF-7, Raji, and C6 cells) or 3 × 10^3 cells/well (H9c2 cells), and experiments were started after 24 h.
(§3) The in vitro cytotoxicity of individual substances was determined by the MTT method (3-(4,5-dimethylthiazol-2-yl)-2,5-diphenyltetrazolium bromide), according to the manufacturer’s instructions (Sigma-Aldrich, St. Louis, MO, USA).
(§4) Investigated compounds were dissolved in DMSO at a concentration of 10 mM.
(§5) The cells were treated with the investigated compounds for 24 h or 48 h, and MTT reagent was added to each well of the plate. The vehicle with DMSO at a concentration of 1% was used as a control. The absorbance of formed formazan was measured at λ = 570 nm using a Multiskan FC microplate photometer (Thermo Scientific, Waltham, MA, USA) and expressed in optical units (o.u.). The results are presented as % of viable cells relative to vehicle, and 50% inhibition concentration of cell viability (IC50) was calculated.

[2] = tested on: human hepatocarcinoma HepG2; parameters: method as in doi:10.25135/rnp.294.2109.2194; settings: cited from earlier work
rat glioblastoma C6 = assay: MTT cytotoxicity assay, C6 cells; format: cell-based; settings: 24 h incubation, mean ± SEM
Method: as §1, §2, §3, §4, §5

[3] = tested on: human breast cancer MCF-7; assay: MTT cytotoxicity assay, MCF-7 cells; format: cell-based
Method: as §1, §2, §3, §4, §5

human lymphoma Raji = assay: MTT cytotoxicity assay, Raji cells; format: cell-based; settings: 24 h incubation, mean ± SEM
Method: as §1, §2, §3, §4, §5

[4] = tested on: normal rat cardiomyocyte H9c2 cell line; assay: MTT cytotoxicity assay, H9c2 cells; format: cell-based; settings: 24 h incubation, mean ± SEM
Method: as §1, §2, §3, §4, §5

[5] = tested on: gastric cancer MKN-45 cells; parameters: method as in doi:10.25135/rnp.294.2109.2194; settings: cited from earlier work
MCF-7 cells [6] = assay: Total caspase activity by flow cytometry (Muse multicaspase kit); format: cell-based, human; settings: 10 µM, 48 h; control 4.7%
Method: The influence of the compounds on the percentage of live MCF-7 cells (caspase−/7-AAD−), live MCF-7 cells with caspase activity (caspase+/7-AAD−), dead MCF-7 cells with caspase activity […] MCF-7 cells (caspase−/7-AAD+) was measured by a Muse® multicaspase kit (Luminex, Austin, TX, USA). The kit utilizes a VAD-peptide derivatized with a fluorescent group called fluorescent-labeled inhibitor of caspases (FLICA). The peptide binds to activated caspases, resulting in a fluorescent signal proportional to the number of active caspases in the cell. Fluorescent dye 7-AAD was used as a dead cell marker in this assay.
After incubation, culture media were collected, and cells were washed twice with cold PBS and incubated in trypsin-EDTA solution for 1 min. The cell suspension was washed twice by centrifugation at 250× g for 4 min with cold PBS and then used for caspase activity detection by a Muse® multicaspase kit (caspases 1, 3, 4, 5, 6, 7, 8, and 9) in accordance with manufacturer’s instructions (Luminex, Austin, TX, USA). Fluorescence was measured with a Muse® cell analyzer (Luminex, Austin, TX, USA), and data were processed by Muse 1.5 analysis software (Luminex, Austin, TX, USA).

SHP2 = target: SHP2; parameters: method as in earlier work; settings: cell-free assay; cited from earlier work
MCF-7 cells [7] = assay: Apoptosis profile by flow cytometry (Muse annexin V and dead cell kit); format: cell-based, human; settings: 10 µM, 48 h
Method: After incubation, culture media were collected; then, cells were washed twice with cold PBS and incubated with trypsin-EDTA solution for 1 min. The cell suspension was washed twice by centrifugated at 250× g for 4 min with cold PBS and used for apoptosis detection by a Muse® annexin V and dead cell kit in accordance with manufacturer’s instructions (Luminex, Austin, TX, USA). Fluorescence was measured with a Muse® cell analyzer (Luminex, Austin, TX, USA), and data were processed by Muse 1.5 analysis software (Luminex, Austin, TX, USA). The proportion of apoptotic cells was expressed as a percentage.

MCF-7 cells [8] = assay: Cell cycle analysis by flow cytometry (propidium iodide); format: cell-based, human; settings: 10 µM, 48 h
Method: After incubation, cells were trypsinized, harvested, washed with PBS, and fixed with ice-cold 70% ethanol in a dropwise manner prior to storage at −20 °C overnight. The cells were then washed with PBS, incubated with 200 μg/mL RNAse (PanReac, AppliChem, Darmstadt, Germany) and 20 μg/mL of propidium iodide (Sigma-Aldrich, St. Louis, MO, USA) for 30 min at 37 °C, and the DNA content was analyzed with a Muse® cell analyzer (Luminex, Austin, TX, USA). The data were processed by Muse 1.5 analysis software (Luminex, Austin, TX, USA). The proportion of cells in each phase of the cell cycle was expressed as a percentage.

PTP1B = target: PTP1B; parameters: method as in earlier work; settings: cell-free assay; cited from earlier work
[9] = tested on: H9c2, C6, PC-3, Raji and MCF-7 cells; assay: MTT cytotoxicity, summary statements over several cell lines; format: cell-based; settings: 24 h
Method: as §3, §4, §5

[10] = Homo sapiens, MCF7, 24 h, 24 h incubation, mean ± SEM, read-out: IC50, MCF-7
[11] = 24 h incubation, mean ± SEM, read-out: IC50, MCF-7

SMILES: CC(O)C(O)C=CC=CC(=O)OC1C=C(CO)C(O)(CO)C2(C)CCCC(C)(C)C12 (stereo not shown) [Compound 1, asperflavinoid A]
- IC50 ([1]; Homo sapiens, PC-3, 24 h): 85.3 ± 2.9 µM
- IC50 [2]: 84.4 µM
- IC50 (rat glioblastoma C6; Rattus norvegicus, C6, 24 h): 102 ± 1.7 µM
- IC50 [3, 10]: 59 ± 4.4 µM
- IC50 (human lymphoma Raji; Homo sapiens, Raji, 24 h): > 100 µM
- IC50 ([4]; Rattus norvegicus, H9c2, 24 h): 84.2 ± 3.3 µM
- IC50 [5]: 63.2 µM

SMILES: CC(O)C(O)C=CC=CC(=O)OC1C=C(CO)C(O)(CO)C2(C)CCCC(C)(C)C12 (stereo not shown) [Compound 2, asperflavinoid B]
- IC50 [1]: 75.2 ± 3.8 µM
- IC50 (rat glioblastoma C6): > 100 µM
- IC50 [3, 11]: 54.1 ± 2.4 µM
- IC50 (human lymphoma Raji): > 100 µM
- IC50 [4]: 74.4 ± 4.4 µM

SMILES: CC1(C)CCC[C@@]2(C)[C@H]1[C@H](OC(=O)/C=C/C=C/C=O)C=C1CO[C@@H](O)[C@@]12O [Compound 3, asperflavinoid C]
- IC50 ([1]; Homo sapiens, PC-3, 24 h): 50.8 ± 1.6 µM
- IC50 (rat glioblastoma C6; Rattus norvegicus, C6, 24 h): 56 ± 1.2 µM
- percentage of cells exhibiting caspase activity (living and 7-AAD-labeled) (MCF-7 cells [6]): 12.3%
- decrease in MCF-7 cell viability ([3]; 10 µM, 48 h): ~50%
- IC50 [3, 10]: 33.8 ± 2.2 µM
- IC50 ([3]; Homo sapiens, MCF7, 48 h, 48 h incubation, concentrations up to 10 µM, read-out: IC50, MCF-7 cell viability, prolonged incubation): 10 µM
- IC50 (human lymphoma Raji; Homo sapiens, Raji, 24 h): 82.3 ± 2.9 µM
- IC50, SHP2 enzyme activity (SHP2): 3.0 µg/mL (≈ 7.97 µM)
- amount of apoptotic cells (early and late) (MCF-7 cells [7]; control 1.7%): 15.0%
- amount of living cells (MCF-7 cells [7]; control 98.6%): 84.9%
- IC50 ([4]; Rattus norvegicus, H9c2, 24 h): 55.6 ± 2.6 µM
- subG0 cells (MCF-7 cells [8]; control 5.4%): 34.6%
- decrease in the percentage of cells in the S phase (MCF-7 cells [8]; relative to control): 54.5%
- increase of the percentage of cells in the G2/M phase (MCF-7 cells [8]; relative to control): 25.2%
- reduction of the percentage of cells in the G0/G1 phase (MCF-7 cells [8]; relative to control): 30.9%
- increase of the subG0 population of cells (MCF-7 cells [8]; versus control): 6.4 times
- IC50, PTP1B enzyme activity (PTP1B): 2.8 µg/mL (≈ 7.44 µM)
- IC50 ([9]; range over both compounds and three cell lines): 54.3 to 88.1 µM

SMILES: CC(O)C(O)C=CC=CC(=O)OC1C=C2COC(O)C2(O)C2(C)CCCC(C)(C)C12 (stereo not shown) [Compound 4, asperflavinoid D]
- IC50 ([1]; Homo sapiens, PC-3, 24 h): 57.4 ± 2.4 µM
- IC50 (rat glioblastoma C6; Rattus norvegicus, C6, 24 h): > 100 µM
- IC50 [3, 10]: 75 ± 6.2 µM
- IC50 (human lymphoma Raji; Homo sapiens, Raji, 24 h): 85.7 ± 6 µM
- IC50 ([4]; Rattus norvegicus, H9c2, 24 h): 59.3 ± 1.7 µM

SMILES: CC(O)C(O)C=CC=CC(=O)OC1C=C2COC(O)C2(O)C2(C)CCCC(C)(C)C12 (stereo not shown) [Compound 5, asperflavinoid E]
- IC50 [1]: 59.1 ± 0.8 µM
- IC50 (rat glioblastoma C6): > 100 µM
- IC50 [3, 11]: 80.6 ± 3.5 µM
- IC50 (human lymphoma Raji): 94.4 ± 2.3 µM
- IC50 [4]: 63.9 ± 1.6 µM

SMILES: CC1(C)CCC[C@@]2(C)[C@H]1[C@H](O)C=C1COC(=O)[C@@]12O [Compound 8, strobilactone A]
- IC50 ([1]; Homo sapiens, PC-3, 24 h): > 100 µM
- IC50 (rat glioblastoma C6; Rattus norvegicus, C6, 24 h): > 100 µM
- IC50 [3, 10]: > 100 µM
- IC50 (human lymphoma Raji; Homo sapiens, Raji, 24 h): > 100 µM
- IC50 ([4]; Rattus norvegicus, H9c2, 24 h): > 100 µM
- influence on the viability of the tested cells ([9]; up to a concentration of 100 µM): did not influence the viability
